According to the supplement of paper PMC10307832:

Key:
Assay in all cases: relative viability (nuclei count vs DMSO), 5 days (fraction); higher = more cells survive
[1] = compound: CCN1C(=O)C2=CC(=C(N=C2N(C1=O)C3CC3)N)C(=O)N + Nc1nc2[nH]cc(CCc3ccc(C(=O)N[C@@H](CCC(=O)O)C(=O)O)cc3)c2c(=O)[nH]1 [Pemetrexed] (partner 0.2 µM)
In short: (§1)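 Values are medians from duplicate plates. Each reflects relative viability, defined as the nuclei count of treated wells over that of vehicle wells. Lung cancer cell lines in 1536-well plates were pin-tool dosed one day after seeding with one drug alone or with a fixed anchor-drug dose plus five library-drug doses (not always all listed) in √10 steps, then fixed, stained and imaged at 4× after 5 days.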

[2] = compound: CCN1C(=O)C2=CC(=C(N=C2N(C1=O)C3CC3)N)C(=O)N + CC(=O)c1c(C)c2cnc(Nc3ccc(N4CCNCC4)cn3)nc2n(C2CCCC2)c1=O [Palbociclib] (partner 0.5 µM)
In short: as §1

[3] = compound: CCN1C(=O)C2=CC(=C(N=C2N(C1=O)C3CC3)N)C(=O)N + CS(=O)(=O)CCNCc1ccc(-c2ccc3ncnc(Nc4ccc(OCc5cccc(F)c5)c(Cl)c4)c3c2)o1 [Lapatinib] (partner 2 µM)
In short: as §1

[4] = compound: CCN1C(=O)C2=CC(=C(N=C2N(C1=O)C3CC3)N)C(=O)N + N=C(N)NC(=N)NCCc1ccccc1 [Phenformin] (partner 250 µM)
In short: as §1

[5] = compound: CCN1C(=O)C2=CC(=C(N=C2N(C1=O)C3CC3)N)C(=O)N + O=C(c1cc(Cc2n[nH]c(=O)c3ccccc23)ccc1F)N1CCN(C(=O)C2CC2)CC1 [Olaparib] (partner 8 µM)
In short: as §1

Cell Line: NCI-H3122
- relative viability ([1]; first compound 0.253 µM): 0.217
- relative viability ([1]; first compound 0.8 µM): 0.198
- relative viability ([1]; first compound 2.53 µM): 0.202
- relative viability ([1]; first compound 8 µM): 0.192
- relative viability ([2]; first compound 0.253 µM): 0.183
- relative viability ([2]; first compound 0.8 µM): 0.182
- relative viability ([2]; first compound 2.53 µM): 0.152
- relative viability ([2]; first compound 8 µM): 0.209
- relative viability ([3]; first compound 0.253 µM): 1
- relative viability ([3]; first compound 0.8 µM): 1.05
- relative viability ([3]; first compound 2.53 µM): 0.951
- relative viability ([3]; first compound 8 µM): 1.03
- relative viability ([4]; first compound 0.253 µM): 0.401
- relative viability ([4]; first compound 0.8 µM): 0.393
- relative viability ([4]; first compound 2.53 µM): 0.394
- relative viability ([4]; first compound 8 µM): 0.358
- relative viability ([5]; first compound 0.253 µM): 0.636
- relative viability ([5]; first compound 0.8 µM): 0.659
- relative viability ([5]; first compound 2.53 µM): 0.624
- relative viability ([5]; first compound 8 µM): 0.581

Cell Line: PC-3 [JPC-3]
- relative viability ([1]; first compound 0.253 µM): 1.1
- relative viability ([1]; first compound 2.53 µM): 1.26
- relative viability ([1]; first compound 8 µM): 1.2
- relative viability ([2]; first compound 0.253 µM): 0.545
- relative viability ([2]; first compound 2.53 µM): 0.559
- relative viability ([2]; first compound 8 µM): 0.52
- relative viability ([3]; first compound 0.253 µM): 0.486
- relative viability ([3]; first compound 0.8 µM): 0.416
- relative viability ([3]; first compound 2.53 µM): 0.481
- relative viability ([3]; first compound 8 µM): 0.476
- relative viability ([4]; first compound 0.253 µM): 0.468
- relative viability ([4]; first compound 0.8 µM): 0.498
- relative viability ([4]; first compound 2.53 µM): 0.508
- relative viability ([4]; first compound 8 µM): 0.448
- relative viability ([5]; first compound 0.253 µM): 1.13
- relative viability ([5]; first compound 2.53 µM): 1.18
- relative viability ([5]; first compound 8 µM): 1.21

Cell Line: PC-14
- relative viability ([1]; first compound 0.253 µM): 0.133
- relative viability ([1]; first compound 0.8 µM): 0.14
- relative viability ([1]; first compound 2.53 µM): 0.141
- relative viability ([1]; first compound 8 µM): 0.149
- relative viability ([2]; first compound 0.253 µM): 0.555
- relative viability ([2]; first compound 0.8 µM): 0.525
- relative viability ([2]; first compound 2.53 µM): 0.526
- relative viability ([2]; first compound 8 µM): 0.514
- relative viability ([3]; first compound 0.253 µM): 0.293
- relative viability ([3]; first compound 0.8 µM): 0.287
- relative viability ([3]; first compound 2.53 µM): 0.303
- relative viability ([3]; first compound 8 µM): 0.315
- relative viability ([4]; first compound 0.253 µM): 0.507
- relative viability ([4]; first compound 0.8 µM): 0.487
- relative viability ([4]; first compound 2.53 µM): 0.75
- relative viability ([4]; first compound 8 µM): 0.603
- relative viability ([5]; first compound 0.253 µM): 0.196
- relative viability ([5]; first compound 0.8 µM): 0.26
- relative viability ([5]; first compound 2.53 µM): 0.306
- relative viability ([5]; first compound 8 µM): 0.308

Cell Line: RERF-LC-KJ
- relative viability ([1]; first compound 0.253 µM): 0.473
- relative viability ([1]; first compound 0.8 µM): 0.448
- relative viability ([1]; first compound 2.53 µM): 0.472
- relative viability ([1]; first compound 8 µM): 0.481
- relative viability ([2]; first compound 0.253 µM): 1.09
- relative viability ([2]; first compound 0.8 µM): 1.1
- relative viability ([2]; first compound 2.53 µM): 1.09
- relative viability ([2]; first compound 8 µM): 1.13
- relative viability ([3]; first compound 0.253 µM): 0.897
- relative viability ([3]; first compound 0.8 µM): 0.882
- relative viability ([3]; first compound 2.53 µM): 0.909
- relative viability ([3]; first compound 8 µM): 0.86
- relative viability ([4]; first compound 0.253 µM): 0.424
- relative viability ([4]; first compound 0.8 µM): 0.411
- relative viability ([4]; first compound 2.53 µM): 0.392
- relative viability ([4]; first compound 8 µM): 0.413
- relative viability ([5]; first compound 0.253 µM): 0.887
- relative viability ([5]; first compound 0.8 µM): 0.89
- relative viability ([5]; first compound 2.53 µM): 0.883
- relative viability ([5]; first compound 8 µM): 0.897

Cell Line: SK-LU-1
- relative viability ([1]; first compound 0.253 µM): 0.933
- relative viability ([1]; first compound 0.8 µM): 1.06
- relative viability ([1]; first compound 2.53 µM): 1
- relative viability ([1]; first compound 8 µM): 1.04
- relative viability ([2]; first compound 0.253 µM): 0.389
- relative viability ([2]; first compound 0.8 µM): 0.45
- relative viability ([2]; first compound 2.53 µM): 0.371
- relative viability ([2]; first compound 8 µM): 0.412
- relative viability ([3]; first compound 0.253 µM): 0.879
- relative viability ([3]; first compound 0.8 µM): 0.879
- relative viability ([3]; first compound 2.53 µM): 0.897
- relative viability ([3]; first compound 8 µM): 1.04
- relative viability ([4]; first compound 0.253 µM): 0.538
- relative viability ([4]; first compound 0.8 µM): 0.587
- relative viability ([4]; first compound 2.53 µM): 0.614
- relative viability ([4]; first compound 8 µM): 0.561
- relative viability ([5]; first compound 0.253 µM): 0.458
- relative viability ([5]; first compound 0.8 µM): 0.446
- relative viability ([5]; first compound 2.53 µM): 0.429
- relative viability ([5]; first compound 8 µM): 0.493

Cell Line: SK-MES-1
- relative viability ([1]; first compound 0.253 µM): 0.981
- relative viability ([1]; first compound 0.8 µM): 0.911
- relative viability ([1]; first compound 2.53 µM): 0.858
- relative viability ([1]; first compound 8 µM): 0.882
- relative viability ([2]; first compound 0.253 µM): 0.362
- relative viability ([2]; first compound 0.8 µM): 0.285
- relative viability ([2]; first compound 2.53 µM): 0.324
- relative viability ([2]; first compound 8 µM): 0.282
- relative viability ([3]; first compound 0.253 µM): 0.478
- relative viability ([3]; first compound 0.8 µM): 0.485
- relative viability ([3]; first compound 2.53 µM): 0.451
- relative viability ([3]; first compound 8 µM): 0.492
- relative viability ([4]; first compound 0.253 µM): 0.628
- relative viability ([4]; first compound 0.8 µM): 0.687
- relative viability ([4]; first compound 2.53 µM): 0.662
- relative viability ([4]; first compound 8 µM): 0.642
- relative viability ([5]; first compound 0.253 µM): 0.77
- relative viability ([5]; first compound 0.8 µM): 0.76
- relative viability ([5]; first compound 2.53 µM): 0.713
- relative viability ([5]; first compound 8 µM): 0.665

Cell Line: SW 1573
- relative viability ([1]; first compound 0.253 µM): 0.855
- relative viability ([1]; first compound 0.8 µM): 0.884
- relative viability ([1]; first compound 2.53 µM): 0.844
- relative viability ([1]; first compound 8 µM): 0.791
- relative viability ([2]; first compound 0.253 µM): 0.39
- relative viability ([2]; first compound 0.8 µM): 0.384
- relative viability ([2]; first compound 2.53 µM): 0.399
- relative viability ([2]; first compound 8 µM): 0.451
- relative viability ([3]; first compound 0.253 µM): 1.03
- relative viability ([3]; first compound 0.8 µM): 1.02
- relative viability ([3]; first compound 2.53 µM): 1.23
- relative viability ([3]; first compound 8 µM): 0.985
- relative viability ([4]; first compound 0.253 µM): 0.398
- relative viability ([4]; first compound 0.8 µM): 0.472
- relative viability ([4]; first compound 2.53 µM): 0.276
- relative viability ([4]; first compound 8 µM): 0.364
- relative viability ([5]; first compound 0.253 µM): 0.748
- relative viability ([5]; first compound 0.8 µM): 0.431
- relative viability ([5]; first compound 2.53 µM): 0.519
- relative viability ([5]; first compound 8 µM): 0.532

Cell Line: UMC-11
- relative viability ([1]; first compound 0.253 µM): 0.867
- relative viability ([1]; first compound 0.8 µM): 0.846
- relative viability ([1]; first compound 2.53 µM): 0.761
- relative viability ([1]; first compound 8 µM): 0.845
- relative viability ([2]; first compound 0.253 µM): 0.333
- relative viability ([2]; first compound 0.8 µM): 0.336
- relative viability ([2]; first compound 2.53 µM): 0.336
- relative viability ([2]; first compound 8 µM): 0.279
- relative viability ([3]; first compound 0.253 µM): 1.12
- relative viability ([3]; first compound 0.8 µM): 0.909
- relative viability ([3]; first compound 2.53 µM): 1
- relative viability ([3]; first compound 8 µM): 0.9
- relative viability ([4]; first compound 0.253 µM): 0.322
- relative viability ([4]; first compound 0.8 µM): 0.319
- relative viability ([4]; first compound 2.53 µM): 0.304
- relative viability ([4]; first compound 8 µM): 0.293
- relative viability ([5]; first compound 0.253 µM): 0.376
- relative viability ([5]; first compound 0.8 µM): 0.337
- relative viability ([5]; first compound 2.53 µM): 0.312
- relative viability ([5]; first compound 8 µM): 0.365
